# Laboratory results reported in patent US12729194B2, “Compounds for the treatment of human immunodeficiency virus” (priority 2019, dated 2026).
# Tests used:
# HIV-1AD8 Env on VLPs [1] = assay: Reversibility of compound effects on VLP Env conformation (19b antibody recognition after washing); conditions: for Durability / reversibility of Env conformational effects (in words): after washing
# Protocol: (§1) Characterization of VLP-associated Env: To prepare VLPs with HIV-1AD8 Env, 150-mm dishes of 30-40% confluent A549-Gag/Env cells were seeded and, on the following day, treated with 2 μg/ml doxycycline. Approximately 72 hours after induction, cell supernatants were harvested and cleared by low-speed centrifugation (500×g for 15 minutes at 4° C.) and 0.45-μ filtration. VLPs were pelleted by centrifugation at 100,000×g for one hour at 4° C. The resuspended VLP preparation was clarified by low-speed centrifugation. BMS-806 and compounds described herein were added to the clarified VLP-containing suspensions. In some cases, the VLP-compound mixtures were irradiated with a 100-watt, 365-nm ultraviolet (UV) lamp for 10 minutes at room temperature. For all UV studies, exposure of the samples to visible light was minimized.
# For studies of the reversibility of effects, the compounds were added to the VLPs and mixed for several seconds at room temperature. Then the VLPs were pelleted (20,000×g for 30 minutes at 4° C.) twice, washing with 1.5 ml PBS with 2% DMSO. The pelleted VLPs were resuspended in 1 ml PBS with 2% DMSO and incubated at room temperature for various lengths of time (20 minutes—3 weeks). Control VLPs were incubated in the continued presence of the compounds at room temperature for the same length of time. Then the VLPs were pelleted (20,000×g for 30 minutes at 4° C.) and the pellet incubated with 1.5% Triton X-100 for 30 minutes at 4° C. The VLP lysates were centrifuged (20,000×g for 30 minutes at 4° C.) and the supernatants were incubated with antibodies (10 μg/ml) in a 50-μl volume with 25 mg/ml of Protein A-Sepharose beads for one hour at 4° C. The beads were pelleted (1000 rpm for 1 minute at room temperature) and washed three times with 1 ml wash buffer with 1% Triton X-100. The beads were suspended in NuPAGE LDS Sample Buffer (ThermoFisher), boiled and analyzed by Western blot, as described above.
# The BMS-806-induced decrease in binding of the 19b anti-V3 antibody can be used as an indicator of BMS-806-Env binding, allowing estimation of the stability of the Env-compound complex. BMS-806 and BMS-529 were incubated with the HIV-1AD8 Env on VLPs. The VLPs were then washed and incubated at room temperature for various lengths of time in a buffer with (+/+) or without (+/−) compound. After this incubation, Env conformation was assessed using the 19b anti-V3 antibody, the 2G12 antibody (the binding of which is not affected by BMS-806), and a negative control human immunoglobulin (hIgG) preparation. 19b recognition of Env in the washed samples (+/−) was compared with those in the samples continuously incubated with the compound (+/+) and the untreated samples (−) (FIG. 4). […] Despite this slow rate of dissociation of compounds described herein from Env, the binding and the consequent effects of these compounds on Env conformation appear to be reversible.
# HIV-1 with HIV-1AD8 Env = assay: microbe, parasite or virus in culture; type: cell-based; conditions: for IC50: Human immunodeficiency virus 1, Cf2Th-CD4/CCR5 target cells, 48 hours, luciferase, means and standard errors of four experiments, read-out: 50% inhibitory concentration (IC50), AD8; for Potency of inhibition of HIV-1 infection (in words): Table 1 HIV-1 Envs
# HIV-1 with BG505 Env = assay: microbe, parasite or virus in culture; type: cell-based; conditions: Human immunodeficiency virus 1; Cf2Th-CD4/CCR5 target cells, 48 hours, luciferase; means and standard errors of four experiments; read-out: 50% inhibitory concentration (IC50), BG505
# [2] = tested on: HIV-1 with HIV-1JR-FL Env; assay: microbe, parasite or virus in culture; type: cell-based; conditions: Human immunodeficiency virus 1; Cf2Th-CD4/CCR5 target cells, 48 hours, luciferase; means and standard errors of four experiments; read-out: 50% inhibitory concentration (IC50), JR-FL
# [3] = tested on: HIV-1 with JR-FL S375W Env; type: cell-based; conditions: Cf2Th-CD4/CCR5 target cells, 48 hours, luciferase; read-out: 50% inhibitory concentration (IC50), JR-FL S375W
# [4] = tested on: envelope glycoproteins of the amphotropic murine leukemia virus (AMLV); assay: microbe, parasite or virus in culture; type: cell-based; conditions: Cf2Th-CD4/CCR5 target cells, 48 hours, luciferase, specificity control, read-out: 50% inhibitory concentration (IC50), AMLV
# HIV-1AD8 Env on VLPs [5] = assay: Shedding of gp120 from VLP Env; conditions: 4° C. and 37° C., 4 days, no detergent
# Protocol: Shedding of gp120 from VLP Env: The effect of compounds on the spontaneous shedding of gp120 from VLP Env was evaluated. VLPs with the wild-type HIV-1AD8 Env were prepared from the supernatants of A549-Gag/Env cells, as described above. The VLPs were suspended in PBS, to which was added either DMSO or a compound described herein. An aliquot of the VLP suspension in PBS/DMSO was processed as described below to serve as a Day 0 control. The VLP suspensions were incubated for 4 days at 4° C., room temperature or 37° C. (with gentle rocking). Then the VLPs were pelleted (100,000×g for 30 min at 4° C.). The pellets and supernatants were boiled in LDS sample buffer and analyzed by Western blotting with either 1:2000 goat anti-gp120 polyclonal antibody (ThermoFisher) and HRP-conjugated rabbit anti-goat IgG antibody, or with 1:5000 rabbit anti-Gag p55/p24/p17 antibody (Abcam) and HRP-conjugated goat anti-rabbit IgG antibody (Abcam).
# VLP HIV-1AD8 Env = assay: Antibody recognition of VLP-associated Env; conditions: compound plus UV irradiation
# Protocol: as §1
# For studies of the binding of ligands (antibodies, CD4-Ig and C34-Ig) to detergent-solubilized VLP Env, VLPs prepared as described above were pelleted (20,000×g for 30 minutes at 4° C.). The pellet was incubated with 1.5% Triton X-100 for 30 minutes at 4° C. The VLP lysates were centrifuged (20,000×g for 30 minutes at 4° C.) and the supernatants were incubated with ligands (10 μg/ml) in a 50-μl volume with 25 mg/ml of Protein A-Sepharose beads for one hour at 4° C. The beads were pelleted (1000 rpm for 1 minute at room temperature), washed three times with 1 ml wash buffer with 1% Triton X-100, suspended in LDS Sample Buffer and analyzed by Western blot, as described above.
# In a second assay format, the effect of the compounds was analyzed on the binding of antibodies to Env on intact VLPs, in the absence of detergent. In this case, VLPs in A549-Gag/Env supernatants, clarified as described above, were pelleted at 100,000×g for one hour at 4° C. The pellet was resuspended in PBS and the VLPs pelleted at 20,000×g for 30 minutes at 4° C. The VLPs were resuspended in PBS and incubated with antibodies (10 μg/ml) in a 100-μl volume for one hour at 4° C. The VLPs were then pelleted (20,000×g for 30 minutes at 4° C.) and washed with PBS three times. The VLP pellet was then solubilized in 1.5% Triton X-100 for 30 minutes at 4° C., after which the VLP lysates were clarified by centrifugation at 20,000×g for 30 minutes at 4° C. The supernatants were incubated with 50 μl of Protein A-Sepharose beads for one hour at 4° C. The beads were pelleted (1000 rpm for 1 minute at room temperature), washed three times with 1 ml wash buffer with 1% Triton X-100, suspended in LDS Sample Buffer, and analyzed by Western blot, as described above.
Structure (SMILES),"Time until conformational effects on Env are reversed after washing (HIV-1AD8 Env on VLPs [1]; VLPs in PBS with 2% DMSO, room temperature)","Conformational effect on 19b binding after washing (HIV-1AD8 Env on VLPs [1]; twenty-four hours after washing, room temperature)",IC50 (HIV-1 with HIV-1AD8 Env),IC50 (HIV-1 with BG505 Env),IC50 [2],IC50 [3],IC50 [4],Durability / reversibility of Env conformational effects (in words) (HIV-1AD8 Env on VLPs [1]),Potency of inhibition of HIV-1 infection (in words) (HIV-1 with HIV-1AD8 Env),Spontaneous shedding of gp120 into the VLP supernatant (HIV-1AD8 Env on VLPs [5]),"VLP Env recognition by poorly neutralizing antibodies two weeks after treatment (VLP HIV-1AD8 Env; washed, two weeks without compound)","VLP Env recognition by bNAbs two weeks after treatment (VLP HIV-1AD8 Env; PG9, PGT145, PGT151, 35022, 2F5, 4E10, 10E8)"
"COc1cnc(-n2cnc(C)n2)c2[nH]cc(C(=O)C(=O)N3CCN(C(=O)c4ccccc4)CC3)c12 [BMS-529, reference compound]",2 to 4 days,still apparent,–,–,–,–,–,–,–,–,–,–
COc1ccc(-c2ccc(CNC(=O)c3ccc(C4(C(F)(F)F)N=N4)cc3)o2)c2[nH]cc(C(=O)C(=O)N3CCN(C(=O)c4ccccc4)CC3)c12 [AEG-II-159],–,–,0.2 nM,0.8 nM,1.6 nM,> 100 nM,> 100 nM,at least three weeks,–,–,–,–
COc1ccc(-c2ccc(CNC(=O)c3ccccc3)o2)c2[nH]cc(C(=O)C(=O)N3CCN(C(=O)c4ccccc4)CC3)c12 [AEG-III-032],–,–,0.36 nM,1.5 nM,0.6 nM,> 100 nM,> 100 nM,–,potencies comparable to that of BMS-806,–,–,–
O=C(Nc1cccc2c(C(=O)C(=O)N3CCN(C(=O)c4ccccc4)CC3)c[nH]c12)c1ccccc1 [AEG-III-096],–,–,2.4 nM,–,0.9 nM,> 100 nM,> 100 nM,much faster reversibility,potencies comparable to that of BMS-806,–,–,–
O=C(Nc1cccc2c(C(=O)C(=O)N3CCN(C(=O)c4ccccc4)CC3)c[nH]c12)c1ccc(C2(C(F)(F)F)N=N2)cc1 [AEG-III-087],–,–,0.06 nM,1.9 nM,0.1 nM,> 100 nM,> 100 nM,–,–,decreased the shedding of gp120,lowered Env recognition by poorly neutralizing antibodies,this increase was not seen
